The source of these data is PubChem BioAssay (NCI).

Values joined by “and” are separate entries in the source; they are usually repeats but may differ in a detail not shown here. Identical values can stand only once.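 Exposure lasted 48 hours, with cells grown in 96-well plates and compounds tested at five concentrations. GI50 marks 50% less growth. At the TGI there is no net growth.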

Test systems include A498 renal; HCT-15 colon; KM12 colon; MDA-MB-435; OVCAR-3 ovarian; SK-MEL-28 melanoma; SNB-19 CNS; SNB-75 CNS.
Assay in all cases: DTP human tumour cell line panel, 48 h

By GI50 is commonly meant the concentration that inhibits growth by half. One may read the TGI as the concentration at which net growth stops. A higher TGI goes with less potent growth arrest. `CC(C)C[C@H](NC(=O)[C@@H](O)[C@H](N)Cc1ccccc1)C(=O)O`: in the experiment on A498 renal, the GI50 is > 100 µM. Also, the TGI in the experiment on A498 renal, in the experiment on HCT-15 colon, in the experiment on KM12 colon, in the experiment on MDA-MB-435, in the experiment with OVCAR-3 ovarian and with SK-MEL-28 melanoma was > 100 µM each time. Further, the TGI in the experiment with SNB-19 CNS and in the experiment on SNB-75 CNS was > 100 µM throughout.
In the case of `C=C(C)[C@]12CC(C)C34OC(/C=C\C=C\CCCCCCCCC)(O[C@@H]1[C@@H]3[C@@H]1O[C@]1(CO)[C@@H](O)[C@]1(O)C(=O)C(C)=C[C@@H]41)O2` (stereo partly specified), the TGI in the experiment on HCT-15 colon amounted to 25.4 µM; with KM12 colon, 21.7 µM; in the experiment on MDA-MB-435, 21.5 µM; with OVCAR-3 ovarian it was 16.3 µM; in the experiment with SK-MEL-28 melanoma, 25.6 µM; with SNB-19 CNS, 30.5 µM. Also, the TGI in the experiment on SNB-75 CNS came to 22 µM. In the experiment with MDA-MB-435, the concentration for 50% growth inhibition (GI50) was < 0.0001 µM.
As to `CC(=O)N[C@@H]1CCC[C@H](C(=O)Nc2cc(-c3cnn4c3CC(C)(C)C4)c(Cl)cn2)C1`, the concentration for 50% growth inhibition (GI50) was < 0.01 µM in the experiment on A498 renal; 0.0225 µM with HCT-15 colon; < 0.01 µM in the experiment on KM12 colon; < 0.013 µM with MDA-MB-435; < 0.0133 µM with SK-MEL-28 melanoma; < 0.01 µM in the experiment on SNB-19 CNS. Moreover, the concentration for 50% growth inhibition (GI50) in the experiment with SNB-75 CNS is < 0.01 µM. The TGI in the experiment with A498 renal was 0.0313 µM; in the experiment on HCT-15 colon, > 100 µM; in the experiment with KM12 colon, 12.2 µM; in the experiment with MDA-MB-435, 11.9 µM; in the experiment on SK-MEL-28 melanoma, 0.342 µM; in the experiment on SNB-19 CNS, > 100 µM. Further, the concentration for total growth inhibition (TGI) in the experiment with SNB-75 CNS is 0.029 µM.
With `O=c1[nH]c2cc(O)ccc2n2cc3c(F)cccc3c12`, the GI50 in the experiment with A498 renal is 3.76 µM; in the experiment on HCT-15 colon, 0.536 µM; in the experiment with KM12 colon, 1.86 µM; in the experiment on MDA-MB-435, 0.278 µM; with OVCAR-3 ovarian it was 5.77 µM; with SNB-19 CNS, 3.33 µM. In addition, the GI50 in the experiment on SNB-75 CNS was 1.76 µM. For the same compound, the TGI in the experiment on A498 renal, with HCT-15 colon, in the experiment on KM12 colon, in the experiment on MDA-MB-435, in the experiment on OVCAR-3 ovarian and in the experiment with SNB-19 CNS was > 100 µM throughout. In addition, in the experiment on SNB-75 CNS, the TGI was > 100 µM.
Regarding `O=c1c2cc(F)ccc2sc2c(NCCCN3CCCC3)nc3ccccc3c12`, the GI50 is 1.74 µM with A498 renal; 1.82 µM in the experiment with HCT-15 colon; 1.8 µM with MDA-MB-435; 2.07 µM in the experiment with OVCAR-3 ovarian; 1.97 µM with SK-MEL-28 melanoma; 1.7 µM in the experiment on SNB-19 CNS. Moreover, in the experiment on SNB-75 CNS, the GI50 was 1.43 µM. Also, the TGI in the experiment on A498 renal came out at 7.65 µM; in the experiment on HCT-15 colon, 3.53 µM; in the experiment on MDA-MB-435, 3.25 µM; in the experiment with OVCAR-3 ovarian, 4.72 µM; with SK-MEL-28 melanoma it was 3.85 µM; in the experiment with SNB-19 CNS, 3.53 µM. In the experiment on SNB-75 CNS, this compound showed a total growth inhibition concentration (TGI) of 3.14 µM.
In the case of `Cc1cc(N)c2ccccc2[n+]1CCCCCCCCCC[n+]1c(C)cc(N)c2ccccc21`, the 50% growth inhibitory concentration (GI50) with A498 renal is 0.0691 µM; in the experiment on HCT-15 colon, 1.25 µM and 3.67 µM; in the experiment on KM12 colon it was 0.145 µM; with MDA-MB-435, 0.245 µM; in the experiment with SK-MEL-28 melanoma it was 0.277 µM and 1.18 µM; with SNB-75 CNS, 0.212 µM and 0.249 µM. The TGI in the experiment on HCT-15 colon is > 50 µM and 25.9 µM and 81.9 µM; in the experiment on KM12 colon it was 0.65 µM and 1.49 µM; in the experiment on MDA-MB-435, 0.926 µM and 3.18 µM; in the experiment on SK-MEL-28 melanoma, 1.33 µM and 5.09 µM and 3.28 µM; with SNB-19 CNS, > 26.1 µM and 2.96 µM and 16.2 µM; with SNB-75 CNS it was 6.77 µM and 6.72 µM and 11 µM.
On to `O=c1[nH]c(-c2ccccn2)nc2sc3c(c12)CCCCCC3`, for which the GI50 with A498 renal was 1.31 µM; in the experiment on HCT-15 colon, 2.35 µM; with KM12 colon, 4.1 µM; with MDA-MB-435, > 100 µM; in the experiment on OVCAR-3 ovarian, 8.51 µM; in the experiment on SK-MEL-28 melanoma, 6.01 µM. In addition, the GI50 in the experiment on SNB-75 CNS was 85.1 µM. Moreover, the TGI with A498 renal, in the experiment with HCT-15 colon, with KM12 colon, with MDA-MB-435, in the experiment on OVCAR-3 ovarian and in the experiment on SK-MEL-28 melanoma was > 100 µM in each case. In the experiment on SNB-75 CNS, the TGI is > 100 µM.
Regarding `COCCCN1C(=O)C2c3[nH]c4ccccc4c3C3CCC(C(C)(C)C)CC3C2C1=O` (stereo unspecified), the concentration for total growth inhibition (TGI) with HCT-15 colon is 44.7 µM; in the experiment on KM12 colon, 55.5 µM; in the experiment on MDA-MB-435 it was > 100 µM; in the experiment on OVCAR-3 ovarian, 35.9 µM; in the experiment on SK-MEL-28 melanoma, > 100 µM; in the experiment on SNB-19 CNS, > 100 µM. In addition, the TGI with SNB-75 CNS was > 100 µM.
Take `COC(=O)C1=C(O)C(C(=O)OC)[C@@]2(O)[C@@H](C(=O)OC)C(c3ccc(OC(=O)C(CC(C)C)NC(C)=O)cc3)C[C@@H]1[C@@H]2C(=O)OC` (stereo partly specified): the GI50 is 31.9 µM in the experiment on HCT-15 colon; 28.2 µM in the experiment on KM12 colon; > 100 µM in the experiment with MDA-MB-435; > 100 µM in the experiment on OVCAR-3 ovarian; > 100 µM with SK-MEL-28 melanoma; 37.1 µM with SNB-19 CNS. In addition, the TGI in the experiment with HCT-15 colon, with KM12 colon, in the experiment with MDA-MB-435, with OVCAR-3 ovarian, in the experiment on SK-MEL-28 melanoma and in the experiment on SNB-19 CNS was > 100 µM in each case.
Regarding `Cc1csc(Nc2nc(-c3cccc(Cl)c3)nc(C(Cl)(Cl)Cl)n2)n1`, the GI50 was 4.46 µM in the experiment with HCT-15 colon; 1.64 µM in the experiment on KM12 colon; 7.83 µM in the experiment with MDA-MB-435; 1.06 µM in the experiment with OVCAR-3 ovarian; 3.53 µM in the experiment on SK-MEL-28 melanoma; 3.27 µM with SNB-19 CNS. In addition, the TGI was > 33.3 µM in the experiment on HCT-15 colon; 6.21 µM in the experiment on KM12 colon; > 33.3 µM in the experiment with MDA-MB-435; 3.53 µM in the experiment with OVCAR-3 ovarian; > 33.3 µM with SK-MEL-28 melanoma; > 33.3 µM in the experiment with SNB-19 CNS.
As to `CC(C)(C)c1ccc(S(=O)(=O)N[C@H]2CC[C@H]3[C@@H]4CCc5cc(O)ccc5[C@H]4CC[C@]23C)cc1`, the GI50 in the experiment on A498 renal is 1.31 µM; with KM12 colon, 1.93 µM; with MDA-MB-435, 1.79 µM; in the experiment with OVCAR-3 ovarian, 2.09 µM; in the experiment with SK-MEL-28 melanoma it was 1.71 µM; with SNB-19 CNS, 3.54 µM. Further, the GI50 with SNB-75 CNS was 2.08 µM. The total growth inhibition concentration (TGI) is 2.72 µM in the experiment on A498 renal; 3.87 µM in the experiment with KM12 colon; 3.33 µM in the experiment on MDA-MB-435; 3.95 µM in the experiment with OVCAR-3 ovarian; 3.18 µM with SK-MEL-28 melanoma; 18 µM with SNB-19 CNS. Also, the TGI in the experiment on SNB-75 CNS amounted to 6.38 µM.
Consider `COc1ccc(-n2nc(C)c3c2N(C)C2(C)C[C@@H]4C3(C)[C@@H]3CC4(C2)N(C)c2c(c(C)nn2-c2ccc(OC)cc2)[C@H]3C)cc1` (stereo partly specified), for which the GI50 with A498 renal is 3.95 µM; in the experiment on OVCAR-3 ovarian, 7.14 µM; in the experiment with SK-MEL-28 melanoma it was 15.2 µM; in the experiment on SNB-19 CNS, 4.45 µM. Besides, the TGI with A498 renal was 26.9 µM; in the experiment with OVCAR-3 ovarian, > 100 µM; with SK-MEL-28 melanoma, > 100 µM; in the experiment on SNB-19 CNS it was 86.3 µM.
Turning to `COc1ncnc2c(-c3ccco3)cn(COCc3ccccc3)c12`, the GI50 in the experiment on A498 renal is 0.697 µM; with KM12 colon, > 50 µM; in the experiment with MDA-MB-435 it was > 50 µM; with OVCAR-3 ovarian it was > 50 µM; in the experiment with SK-MEL-28 melanoma, > 50 µM; with SNB-19 CNS, > 50 µM. For the same compound, the GI50 in the experiment with SNB-75 CNS is 12.7 µM. Further, the total growth inhibition concentration (TGI) in the experiment on A498 renal, in the experiment on KM12 colon, with MDA-MB-435, in the experiment on OVCAR-3 ovarian, in the experiment on SK-MEL-28 melanoma and in the experiment on SNB-19 CNS was > 50 µM each time. Also, the TGI in the experiment with SNB-75 CNS was > 50 µM.
Consider `CCCCCCN1C(=O)CN=C1Nc1ccc2cc3ccc(NC4=NCC(=O)N4CCCCCC)cc3nc2c1`, for which the GI50 with A498 renal was 15.9 µM; with KM12 colon, 1.47 µM; with MDA-MB-435, 1.79 µM; in the experiment with OVCAR-3 ovarian, 1.36 µM; in the experiment on SK-MEL-28 melanoma, 2.21 µM; in the experiment on SNB-19 CNS it was 2.07 µM. Moreover, in the experiment on SNB-75 CNS, the GI50 is 2.15 µM. The concentration for total growth inhibition (TGI) in the experiment with A498 renal came to 32.6 µM; with KM12 colon it was 4.1 µM; in the experiment with MDA-MB-435, 3.77 µM; in the experiment on OVCAR-3 ovarian it was 3.08 µM; with SK-MEL-28 melanoma, 5.92 µM; in the experiment with SNB-19 CNS it was 4.67 µM. The compound also registered a concentration for total growth inhibition (TGI) in the experiment with SNB-75 CNS of 12.4 µM.
Take `O=C(CC(C(=O)O)N1CCOCC1)c1ccccc1` (stereo unspecified): the TGI with A498 renal amounted to 63 µM; in the experiment on HCT-15 colon, 40.8 µM; with OVCAR-3 ovarian, 35.7 µM; in the experiment on SK-MEL-28 melanoma, 36.6 µM; in the experiment on SNB-19 CNS it was 53.4 µM; with SNB-75 CNS it was 83.4 µM.
As to `O=C(NO)C(O)C(O)C(O)C(O)CO` (stereo unspecified), the GI50 in the experiment on A498 renal was > 100 µM; in the experiment with HCT-15 colon, > 100 µM; in the experiment with KM12 colon it was > 100 µM and 53.2 µM; in the experiment with MDA-MB-435, > 100 µM; in the experiment on OVCAR-3 ovarian, > 100 µM; in the experiment on SK-MEL-28 melanoma it was > 100 µM. Moreover, in the experiment on SNB-19 CNS, the GI50 is > 100 µM. In addition, the TGI with A498 renal, with HCT-15 colon, in the experiment on KM12 colon, in the experiment on MDA-MB-435, with OVCAR-3 ovarian and in the experiment on SK-MEL-28 melanoma was > 100 µM each time. Further, in the experiment on SNB-19 CNS, the TGI was > 100 µM.
Regarding `Cc1cnc2[nH]c(-c3ccccc3)cc(=O)c2c1`, the TGI with HCT-15 colon is 1.41 µM; with KM12 colon, 13.9 µM; in the experiment on SK-MEL-28 melanoma, > 100 µM; in the experiment on SNB-19 CNS, > 100 µM; with SNB-75 CNS, 82.8 µM.
